# Source: patent US5877212A (priority 1997, dated 1999)
# Like-named read-outs stand apart in the source and are kept apart here.
# Legend:
# [1] = water; cited from earlier work
# [2] = in vivo
# [3] = assay type: physicochemical
# [4] = design: species or system human; conditions: in vivo
# [5] = in vivo, pH 4.8
Structure (SMILES),pK1 (pKa) [1],further results
"O=C(O)C(O)c1ccccc1 (centres unmarked) [Mandelic acid, 2-phenyl 2-hydroxyethanoic acid]",3.41,
"O=C(O)C(CO)c1ccccc1 (centres unmarked) [Tropic acid, 2-phenyl-3-hydroxypropanoic acid]",3.53,
"CC(C)(O)C(=O)O [Methyllactic acid, 2-methyl 2-hydroxypropanoic acid]",3.72,
Oc1ccc(O)cc1 [hydroquinone],,improvement of pigmented and non-pigmented spots and patches [2]: improved very slightly
"CC(O)(C(=O)O)c1ccccc1 (centres unmarked) [Atrolactic acid, 2-phenyl 2-methyl 2-hydroxyethanoic acid]",3.53,
"O=C(O)CO [Glycolic acid, 2-hydroxyethanoic acid]",,anion content (glycolate) ([3]; pH 3.2): 2%; free acid content ([3]; pH 3.2): 8%; anion content (glycolate) ([3]; pH 3.83): 5%; free acid content ([3]; pH 3.83): 5%
"C[C@H](O)C(=O)O [L-Lactic acid, 2-hydroxypropanoic acid]",,anion content (lactate) ([3]; pH 3.86): 5%; free acid content ([3]; pH 3.86): 5%
O=C(O)c1ccccc1O [salicylic acid],,improvement of acne lesions [4]: improved slightly
"O=C(O)C(O)C(O)C(O)C(O)CO [D-Gluconic acid, 2,3,4,5,6-pentahydroxyhexanoic acid]",3.86,
"O=C(O)C(O)C(=O)O [Tartronic acid, 2-hydroxypropane-1,3-dioic acid]",2.37,pK2 [1]: 4.74
"O=C(O)C(O)CO (racemic) [DL-Glyceric acid, 2,3-dihydroxypropanoic acid]",3.64,
O=C(O)C(O)CCl (centres unmarked) [3-Chlorolactic acid],3.12,
"CC(O)C(=O)O (centres unmarked) [lactic acid, 2-hydroxypropanoic acid]",,skin irritation [5]: can still irritate sensitive skin or atopic skin; anion content (lactate) ([3]; pH 4.5): 8%; free acid content ([3]; pH 4.5): 2%
"O=C(O)CC(O)C(=O)O (centres unmarked) [Malic acid, 2-hydroxybutane-1,4-dioic acid]",3.46,pK2 [1]: 5.10
C[C@H](O)CC(=O)O [L-3-Hydroxybutanoic acid],4.41,
CCC(O)C(=O)O (centres unmarked) [2-Hydroxybutanoic acid],3.65,
"O=C(O)C(O)C(O)C(O)C(O)C(=O)O (centres unmarked) [Glucaric acid, 2,3,4,5-tetrahydroxyhexane-1,6-dioic acid]",5.00,
"CC(=O)C(=O)O [Pyruvic acid, 2-ketopropanoic acid]",2.49,
